Each structure is given as a SMILES string.

The experiment addresses T1, BRD4 BD2 (Homo sapiens, UniProt O60885, Y97A).
T1 construct: BRD4 (1-477) (Y97A) and (Y390A); made in house; host or cells: E. coli (pET15b vector)
The experiment in a line: TR-FRET binding assay, BRD4 BD2 (BD1-mutated protein). As to conditions: read-out: pIC50 in the BRD4 BD2 assay (converted). Summed up: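 Displacement of Alexa Fluor647-labelled bromodomain ligand (at Kd) from 10 nM His-tagged BRD4 (1-477, Y97A) read by Eu-anti-His TR-FRET (665/615 ratio) in pH 7.4 HEPES buffer, 0.5% DMSO. Compound preincubated 30 min at rt, detection ≥30 min. pIC50 derived from four-parameter fit after normalisation to controls.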
Background: In TR-FRET formats the signal depends on donor and acceptor labels being close together.

Take `CC[C@H]1[C@H](C)[C@@H](Nc2cnc(C#N)cn2)c2cc(N3CCNCC3)ccc2N1C(C)=O` (racemic) [Example 221, rac-5-(((2S,3R,4R)-1-acetyl-2-ethyl-3-methyl-6-(piperazin-1-yl)-1,2,3,4-tetrahydroquinolin-4-yl)amino)pyrazine-2-carbonitrile]: the IC50 is 1000 to 100000 nM.
In the case of `CC(=O)N1c2ccc(N3CCN[C@@H](C)C3)cc2[C@H](Nc2cnc(C)cn2)[C@@H](C)[C@@H]1C1CC1` (racemic) [Example 227, 1-((rac-2S,3R,4R)-2-cyclopropyl-3-methyl-6-((S)-3-methylpiperazin-1-yl)-4-((5-methylpyrazin-2-yl)amino)-3,4-dihydroquinolin-1(2H)-yl)ethanone], the IC50 is 1000 to 100000 nM.
The result for `CNC(=O)c1ccc(N[C@H]2c3cc(N4CCN[C@@H](C)C4)ccc3N(C(C)=O)[C@@H](C3CC3)[C@@H]2C)cc1` (racemic) [Example 228, 4-(((rac-2S,3R,4R)-1-acetyl-2-cyclopropyl-3-methyl-6-((S)-3-methylpiperazin-1-yl)-1,2,3,4-tetrahydroquinolin-4-yl)amino)-N-methylbenzamide] reads 1000 to 100000 nM; that for `CNC(=O)c1ccc2c(c1)[C@H](Nc1ccc(C#N)cn1)[C@@H](C)[C@H](C)N2C(C)=O` (racemic) [Example 230, rac-(2S,3R,4R)-1-acetyl-4-((5-cyanopyridin-2-yl)amino)-N,2,3-trimethyl-1,2,3,4-tetrahydroquinoline-6-carboxamide], 100 nM; that for `CNC(=O)c1ccc2c(c1)[C@H](Nc1cccc(C)n1)[C@@H](C)[C@H](C)N2C(C)=O` (racemic) [Example 231, rac-(2S,3R,4R)-1-acetyl-N,2,3-trimethyl-4-((6-methylpyridin-2-yl)amino)-1,2,3,4-tetrahydroquinoline-6-carboxamide], 100 nM.
The result for `CC[C@@H]1[C@@H](C)[C@H](Nc2cccc(C)n2)c2cc(C(=O)NC)ccc2N1C(C)=O` (racemic) [Example 235, rac-(2S,3R,4R)-1-acetyl-2-ethyl-N,3-dimethyl-4-((6-methylpyridin-2-yl)amino)-1,2,3,4-tetrahydroquinoline-6-carboxamide] reads 100 nM; that for `CC[C@H]1[C@H](C)[C@@H](Nc2ccc(C#N)cn2)c2cc(C(=O)NC)ccc2N1C(C)=O` (racemic) [Example 237, rac-(2S,3R,4R)-1-acetyl-4-((5-cyanopyridin-2-yl)amino)-2-ethyl-N,3-dimethyl-1,2,3,4-tetrahydroquinoline-6-carboxamide], 100 nM.
The result for `CNC(=O)c1ccc2c(c1)[C@H](Nc1nccc(C)n1)[C@@H](C)[C@H](C1CC1)N2C(C)=O` (racemic) [Example 240, rac-(2S,3R,4R)-1-acetyl-2-cyclopropyl-N,3-dimethyl-4-((4-methylpyrimidin-2-yl)amino)-1,2,3,4-tetrahydroquinoline-6-carboxamide] reads 100 nM; that for `CNC(=O)c1ccc2c(c1)[C@H](Nc1ccc(C#N)cc1)[C@@H](C)[C@H](C1CC1)N2C(C)=O` (racemic) [Example 243, rac-(2S,3R,4R)-1-acetyl-4-((4-cyanophenyl)amino)-2-cyclopropyl-N,3-dimethyl-1,2,3,4-tetrahydroquinoline-6-carboxamide], 100 nM.
As to `CCNC(=O)c1ccc2c(c1)[C@H](Nc1cccc(C)n1)[C@@H](C)[C@H](CC)N2C(C)=O` (racemic) [Example 279, rac-(2S,3R,4R)-1-acetyl-N,2-diethyl-3-methyl-4-((6-methylpyridin-2-yl)amino)-1,2,3,4-tetrahydroquinoline-6-carboxamide], the IC50 was 100 nM.
The result for `CC[C@H]1[C@H](C)[C@@H](Nc2cccc(C)n2)c2cc(C(=O)NCCC#N)ccc2N1C(C)=O` (racemic) [Example 283, rac-(2S,3R,4R)-1-acetyl-N-(2-cyanoethyl)-2-ethyl-3-methyl-4-((6-methylpyridin-2-yl)amino)-1,2,3,4-tetrahydroquinoline-6-carboxamide] reads 100 nM; that for `CC[C@H]1[C@H](C)[C@@H](Nc2cccc(C)n2)c2cc(C(=O)NC(C)C)ccc2N1C(C)=O` (racemic) [Example 285, rac-(2S,3R,4R)-1-acetyl-2-ethyl-N-isopropyl-3-methyl-4-((6-methylpyridin-2-yl)amino)-1,2,3,4-tetrahydroquinoline-6-carboxamide], 100 nM.
The result for `CC(=O)OC[C@@H]1[C@@H](Nc2ccccc2)c2ccccc2N(C(C)=O)[C@H]1C1CC1` (racemic) [Example 591, rac-((2S,3R,4R)-1-acetyl-2-cyclopropyl-4-(phenylamino)-1,2,3,4-tetrahydroquinolin-3-yl)methyl acetate] reads 1000 to 100000 nM.
In the case of `CC(=O)N1c2ccccc2[C@H](Nc2ccccc2)[C@@H](CO)[C@@H]1C1CC1` (racemic) [Example 592, rac-1-((2S,3R,4R)-2-cyclopropyl-3-(hydroxymethyl)-4-(phenylamino)-3,4-dihydroquinolin-1(2H)-yl)ethanone], the IC50 was 1000 to 100000 nM.
The result for `COc1cc2c(cc1C(N)=O)[C@H](Nc1nccc(C)n1)[C@@H](C)[C@H](C1CC1)N2C(C)=O` (racemic) [Example 593, rac-(2S,3R,4R)-1-acetyl-2-cyclopropyl-7-methoxy-3-methyl-4-((4-methylpyrimidin-2-yl)amino)-1,2,3,4-tetrahydroquinoline-6-carboxamide] reads 1000 to 100000 nM; that for `CC(=O)N1c2ccncc2C(Nc2nccc(C)n2)C(C)C1C1CC1` (racemic) [Example 598b, rac-1-((2,3,4 unknown)-2-cyclopropyl-3-methyl-4-((4-methylpyrimidin-2-yl)amino)-3,4-dihydro-1,6-naphthyridin-1(2H)-yl)ethanone], 1000 to 100000 nM; that for `CC[C@H]1[C@H](C)[C@@H](Nc2cccc(C)n2)c2ccccc2N1C(C)=O` (single isomer, unassigned) [Example 25a], 100 nM.
The result for `CC[C@@H]1[C@@H](C)[C@H](Nc2cccc(C)n2)c2ccccc2N1C(C)=O` (single isomer, unassigned) [Example 25b] reads 1000 to 100000 nM; that for `CC(=O)N1c2ccccc2[C@H](Nc2ccccc2)[C@@H](C)[C@@H]1C1CC1` (single isomer, unassigned) [Example 27a], 100 nM.
The figure for `CC(=O)N1c2ccccc2[C@@H](Nc2ccccc2)[C@H](C)[C@H]1C1CC1` (single isomer, unassigned) [Example 27b] is 1000 to 100000 nM; for `CC(=O)N1c2ccccc2[C@H](Nc2cccc(C)n2)[C@@H](C)[C@@H]1C1CC1` (single isomer, unassigned) [Example 29a] it is 100 nM; for `CC(=O)N1c2ccccc2[C@@H](Nc2cccc(C)n2)[C@H](C)[C@H]1C1CC1` (single isomer, unassigned) [Example 29b] it is 1000 to 100000 nM.
As for `CC(=O)N1c2ccc(N3CCOCC3)cc2[C@H](Nc2ccccc2)[C@@H](C)[C@@H]1C` (single isomer, unassigned) [Example 71a], the IC50 was 1000 to 100000 nM.
The figure for `CC(=O)N1c2ccc(N3CCOCC3)cc2[C@@H](Nc2ccccc2)[C@H](C)[C@H]1C` (single isomer, unassigned) [Example 71b] is 100 nM; for `CC(=O)N1c2ccc(N3CCOCC3)cc2[C@@H](Nc2ccccc2)[C@H](C)[C@H]1C1CC1` (single isomer, unassigned) [Example 91b] it is 1000 to 100000 nM; for `CC(=O)N1c2cccnc2[C@H](Nc2ccccc2)[C@@H](C)[C@@H]1C1CC1` (single isomer, unassigned) [Example 102b] it is 1000 to 100000 nM.
As to `CC(=O)N1c2cccnc2[C@@H](Nc2cccc(C)n2)[C@H](C)[C@H]1C1CC1` (single isomer, unassigned) [Example 114b], the IC50 was 1000 to 100000 nM.
Regarding `COCCn1cc(-c2ccc3c(c2)[C@H](Nc2cccc(C)n2)[C@@H](C)[C@H](C2CC2)N3C(C)=O)cn1` (single isomer, unassigned) [Example 136a], the IC50 was 100 nM.
The figure for `COCCn1cc(-c2ccc3c(c2)[C@H](Nc2cnc(C)cn2)[C@@H](C)[C@H](C2CC2)N3C(C)=O)cn1` (single isomer, unassigned) [Example 138a] is 100 nM.
The result for `COCCn1cc(-c2ccc3c(c2)[C@@H](Nc2cnc(C)cn2)[C@H](C)[C@@H](C2CC2)N3C(C)=O)cn1` (single isomer, unassigned) [Example 138b] reads 1000 to 100000 nM.
The figure for `CC[C@H]1[C@H](C)[C@@H](Nc2cccc(C)n2)c2cc(F)ccc2N1C(C)=O` (single isomer, unassigned) [Example 146a] is 100 nM; for `CC[C@@H]1[C@@H](C)[C@H](Nc2cccc(C)n2)c2cc(F)ccc2N1C(C)=O` (single isomer, unassigned) [Example 146b] it is 1000 to 100000 nM; for `CC[C@H]1[C@H](C)[C@@H](Nc2ccc(C#N)cc2)c2cc(F)ccc2N1C(C)=O` (single isomer, unassigned) [Example 147a] it is 1000 to 100000 nM.
Turning to `CC[C@@H]1[C@@H](C)[C@H](Nc2ccc(C#N)cc2)c2cc(F)ccc2N1C(C)=O` (single isomer, unassigned) [Example 147b], the IC50 was 100 nM.
The result for `CC(=O)N1c2ccc(C3=CCNCC3)cc2[C@H](Nc2cccc(C)n2)[C@@H](C)[C@@H]1C1CC1` (single isomer, unassigned) [Example 189a] reads 100 nM.
Regarding `CC(=O)N1c2ccc(C3=CCNCC3)cc2[C@@H](Nc2cccc(C)n2)[C@H](C)[C@H]1C1CC1` (single isomer, unassigned) [Example 189b], the IC50 was 1000 to 100000 nM.
The result for `CNC(=O)c1ccc2c(c1)[C@H](Nc1cccc(C)n1)[C@@H](C)[C@H](C1CC1)N2C(C)=O` (single isomer, unassigned) [Example 239a] reads 100 nM.
